Assay results: ChEMBL document CHEMBL1153944, “Exploration of click reaction for the synthesis of modified nucleosides as chitin synthase inhibitors” (Bioorg Med Chem, 2009)
Converted amounts (≈) assume the structure as drawn.

What was measured:
Benjaminiella poitrasii [1] = experiment: Antifungal activity against Benjaminiella poitrasii assessed as inhibition of germ tube formation at 4 ug/mL after 6 hrs; assay type: functional
Fusarium oxysporum = experiment: Antifungal activity against Fusarium oxysporum by broth microdilution test; assay type: functional, organism-based
Cryptococcus neoformans = experiment: Antifungal activity against Cryptococcus neoformans by broth microdilution test; assay type: functional, organism-based
Benjaminiella poitrasii [2] = experiment: Inhibition of chitin synthase activity in Benjaminiella poitrasii at 4 ug/mL
Benjaminiella poitrasii [3] = experiment: Antifungal activity against Benjaminiella poitrasii at 4 ug/mL by standard broth microdilution technique; assay type: functional
Candida albicans = experiment: Antifungal activity against Candida albicans by broth microdilution test; assay type: functional, organism-based

| Structure (SMILES) | inhibition at 4 µg/mL (Benjaminiella poitrasii [1]) [%] | IC50 (Fusarium oxysporum) [µg/mL] | MIC90 (Fusarium oxysporum) [µg/mL] | IC50 (Cryptococcus neoformans) [µg/mL] | MIC90 (Cryptococcus neoformans) [µg/mL] | inhibition (Benjaminiella poitrasii [2]) [%] | inhibition at 4 µg/mL (Benjaminiella poitrasii [3]) [%] | IC50 (Candida albicans) [µg/mL] | MIC90 (Candida albicans) [µg/mL] |
| --- | --- | --- | --- | --- | --- | --- | --- | --- | --- |
| Cc1ccccc1CC(=O)OCc1cn(C[C@H]2O[C@@H](n3ccc(=O)[nH]c3=O)[C@@H]3OC(C)(C)O[C@@H]32)nn1 | 67.2 | 64 (≈ 129 µM) | > 128 | 32 (≈ 64.3 µM) | 64 (≈ 129 µM) | 36.4 | 27.3 | 18 (≈ 36.2 µM) | 32 (≈ 64.3 µM) |
| Cc1cccc(OCc2cn(C[C@H]3O[C@@H](n4ccc(=O)[nH]c4=O)[C@@H]4OC(C)(C)O[C@@H]43)nn2)c1 | 69.2 | 32 (≈ 70.3 µM) | 64 (≈ 141 µM) | 8 (≈ 17.6 µM) | 64 (≈ 141 µM) | 82.1 | 34.4 | 34 (≈ 74.6 µM) | 128 (≈ 281 µM) |
| CC1(C)O[C@@H]2[C@H](O1)[C@@H](Cn1cc(COc3ccccc3)nn1)O[C@H]2n1ccc(=O)[nH]c1=O | 45.1 | 128 (≈ 290 µM) | > 128 | 4 (≈ 9.06 µM) | 8 (≈ 18.1 µM) | 77.2 | 21.5 | 68 (≈ 154 µM) | > 128 |
| CC1(C)O[C@@H]2[C@H](O1)[C@@H](Cn1cc(COc3ccc(F)cc3)nn1)O[C@H]2n1ccc(=O)[nH]c1=O | 64.7 | 128 (≈ 279 µM) | > 128 | 64 (≈ 139 µM) | 128 (≈ 279 µM) | 84.1 | 9.43 | 9 (≈ 19.6 µM) | > 128 |
| CC1(C)O[C@@H]2[C@H](O1)[C@@H](Cn1cc(COC(=O)C(=O)c3ccccc3)nn1)O[C@H]2n1ccc(=O)[nH]c1=O | 72 | 55 (≈ 111 µM) | 106 (≈ 213 µM) | 16 (≈ 32.2 µM) | > 128 | 80 | 51.5 | > 128 | > 128 |
| CC1(C)O[C@@H]2[C@H](O1)[C@@H](Cn1cc(COC(=O)Cc3ccc(O)cc3)nn1)O[C@H]2n1ccc(=O)[nH]c1=O | 61.5 | 35 (≈ 70.1 µM) | 57 (≈ 114 µM) | 128 (≈ 256 µM) | > 128 | 73.4 | 28.2 | > 128 | > 128 |
| COc1ccc(OCc2cn(C[C@H]3O[C@@H](n4ccc(=O)[nH]c4=O)[C@@H]4OC(C)(C)O[C@@H]43)nn2)cc1 | 71.4 | 70 (≈ 148 µM) | 124 (≈ 263 µM) | 35 (≈ 74.2 µM) | 49 (≈ 104 µM) | 68.5 | 29.3 | 16 (≈ 33.9 µM) | 24 (≈ 50.9 µM) |
| OC(Cn1cncn1)(Cn1cncn1)c1ccc(F)cc1F [FLUCONAZOLE] |  |  | 8 (≈ 26.1 µM) |  | 32 (≈ 104 µM) |  |  | 14 (≈ 45.7 µM) | 32 (≈ 104 µM) |
| C[C@@H]1[C@H](O)[C@@H](C)/C=C/C=C/C=C/C=C/C=C/C=C/C=C/[C@H](O[C@@H]2O[C@H](C)[C@@H](O)[C@H](N)[C@@H]2O)C[C@@H]2O[C@](O)(C[C@@H](O)C[C@@H](O)[C@H](O)CC[C@@H](O)C[C@@H](O)CC(=O)O[C@H]1C)C[C@H](O)[C@H]2C(=O)O [AMPHOTERICIN B] |  |  | 16 (≈ 17.3 µM) |  | 16 (≈ 17.3 µM) |  |  |  | 2 (≈ 2.16 µM) |
| C[C@@H]([C@H](N)C(=O)N[C@H](C(=O)O)[C@H]1O[C@@H](n2ccc(=O)[nH]c2=O)[C@H](O)[C@@H]1O)[C@H](O)c1ccc(O)cn1 [NIKKOMYCIN] | > 95 | 6 (≈ 12.1 µM) | 8 (≈ 16.1 µM) | 16 (≈ 32.3 µM) | 30 (≈ 60.6 µM) | 96.6 | 45.5 | 32 (≈ 64.6 µM) | 64 (≈ 129 µM) |
| CC1(C)O[C@@H]2[C@H](O1)[C@@H](Cn1cc(COC(=O)COc3ccccc3)nn1)O[C@H]2n1ccc(=O)[nH]c1=O | 52.5 | 16 (≈ 32 µM) | 33 (≈ 66.1 µM) | 128 (≈ 256 µM) | > 128 | 74 | 56.2 | 64 (≈ 128 µM) | > 128 |
| CC1(C)O[C@@H]2[C@H](O1)[C@@H](Cn1cc(COc3ccc(Cl)cc3)nn1)O[C@H]2n1ccc(=O)[nH]c1=O | 58.1 | 16 (≈ 33.6 µM) | 32 (≈ 67.2 µM) | 30 (≈ 63 µM) | 57 (≈ 120 µM) | 95.1 | 34.6 | 18 (≈ 37.8 µM) | 32 (≈ 67.2 µM) |
| CC1(C)O[C@@H]2[C@H](O1)[C@@H](Cn1cc(COC(=O)Cc3ccccc3)nn1)O[C@H]2n1ccc(=O)[nH]c1=O | 75 | 16 (≈ 33.1 µM) | 32 (≈ 66.2 µM) | 18 (≈ 37.2 µM) | 31 (≈ 64.1 µM) | 71 | 31.9 | 18 (≈ 37.2 µM) | 32 (≈ 66.2 µM) |
| CC1(C)O[C@@H]2[C@H](O1)[C@@H](Cn1cc(COC(=O)Cc3ccc(Cl)cc3Cl)nn1)O[C@H]2n1ccc(=O)[nH]c1=O | 57.1 | > 128 | > 128 | 32 (≈ 57.9 µM) | 64 (≈ 116 µM) | 67 | 38.6 | 32 (≈ 57.9 µM) | > 128 |
| CC1(C)O[C@@H]2[C@H](O1)[C@@H](Cn1cc(COC(=O)CCl)nn1)O[C@H]2n1ccc(=O)[nH]c1=O | 60 | 8 (≈ 18.1 µM) | 16 (≈ 36.2 µM) | 125 (≈ 283 µM) | > 128 | 75.7 | 30.2 | 32 (≈ 72.4 µM) | 66 (≈ 149 µM) |
| CC1(C)O[C@@H]2[C@H](O1)[C@@H](Cn1cc(COc3cccc4ccccc34)nn1)O[C@H]2n1ccc(=O)[nH]c1=O | 72.7 | 32 (≈ 65.1 µM) | 64 (≈ 130 µM) | 32 (≈ 65.1 µM) | 64 (≈ 130 µM) | 76.9 | 32.4 | 34 (≈ 69.2 µM) | > 128 |
| CC1(C)O[C@@H]2[C@H](O1)[C@@H](Cn1cc(COc3ccc([N+](=O)[O-])cc3)nn1)O[C@H]2n1ccc(=O)[nH]c1=O | 78.2 | 32 (≈ 65.8 µM) | 64 (≈ 132 µM) | 14 (≈ 28.8 µM) | 32 (≈ 65.8 µM) | 77.8 | 17.4 | > 128 | > 128 |
